Drawing on US6069257A, “Process for the production of tetrazolylbenzopyrans” (SmithKline Beecham p.l.c., priority 1997, dated 2000), this text covers Ki for two compounds.

This assay concerns the target T1, leukotriene D4 receptors (guinea pig lung membranes) (Cavia porcellus, UniProt Q2NNR5).
T1 construct: prepared from tissues obtained from male Hartley guinea pigs; from tissue; host or cells: guinea pig lung membranes (male Hartley guinea pigs)
T1 sequence (Q2NNR5 1-340): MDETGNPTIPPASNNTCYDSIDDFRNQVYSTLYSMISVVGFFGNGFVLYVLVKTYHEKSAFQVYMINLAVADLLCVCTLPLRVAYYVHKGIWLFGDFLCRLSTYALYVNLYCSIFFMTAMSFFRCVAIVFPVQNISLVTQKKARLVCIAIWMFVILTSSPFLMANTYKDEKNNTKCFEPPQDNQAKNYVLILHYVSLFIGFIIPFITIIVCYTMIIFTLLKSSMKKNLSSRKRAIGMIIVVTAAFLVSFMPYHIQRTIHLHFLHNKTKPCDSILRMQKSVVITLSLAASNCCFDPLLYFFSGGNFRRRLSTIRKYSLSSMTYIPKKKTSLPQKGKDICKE
Kind of assay: [3H]-LTD4 binding studies in guinea pig lung membranes. As for the experimental part: Experimental Procedure for Binding Studies in Guinea-Pig Lungs with Pranlukast and Metabolites
Non-specific binding was determined in the presence of 0.5 uM cold LTD4. Membranes with bound ligand were captured on Whatman GF/C filters using vacuum filtration and a Brandel cell harvester, then washed with ice-cold 25 mM Tris-HCl. pH 7.4. The filters were placed in scintillation vials with 10 ml Ready Protein (Beckman, Fullerton, Calif., U.S.A.) and the radioactivity was determined by scintillation spectrometry.
All data are presented as Mean±S.E.M. Concentration-response curves (0.3-10,000 nM) for each compound were tested in at least 2 assays and run in duplicate. Cell-bound radioactivity was determined for each sample and non-specific binding was established in the presence of 1 uM unlabeled LTD4 and subtracted from control and drug-treated samples.

By Ki is commonly meant the dissociation constant of the complex between target and ligand, obtained from inhibition or displacement. Low values mean higher affinity, high ones lower affinity. As to `O=C(Nc1cccc2c(=O)cc(-c3nnnn3O)oc12)c1ccc(OCCCCc2ccccc2)cc1` [Example 1, 4-Oxo-8-[4-(4-phenylbutoxy)benzoylamino]-2-(1-hydroxytetrazol-5-yl)-4H-1-benzopyran], the Ki stood at 0.22 nM.

As to `O=C(Nc1cccc2c(=O)cc(-c3nnn(O)n3)oc12)c1ccc(OCCCCc2ccccc2)cc1` [Example 2, 4-Oxo-8-[4-(4-phenylbutoxy)benzoylamino]-2-(2-hydroxytetrazol-5-yl)-4H-1-benzopyran], the Ki amounted to 0.53 nM.
